Measurements as given in patent US9000185B2, “Cycloalkyl ether compounds and their use as BACE inhibitors” (AstraZeneca AB, priority 2012, dated 2015).

What was measured:
[1] = biological target: T1, human β-Secretase (sBACE-Fc) (Homo sapiens (Human), UniProt P56817); assay: TR-FRET assay; format: biochemical; conditions: standard TR-FRET assay, 15 minutes reaction at RT
Description: The β-secretase enzyme used in the TR-FRET is prepared as follows:
(§1) The cDNA for the soluble part of the human β-Secretase (AA 1-AA 460) was cloned using the ASP2-Fc10-1-IRES-GFP-neoK mammalian expression vector. The gene was fused to the Fc domain of IgG1 (affinity tag) and stably cloned into HEK 293 cells.
(§2) The enzyme (truncated form) was diluted to 6 μg/mL (stock 1.3 mg/mL) and the TruPoint BACE1 Substrate to 200 nM (stock 120 μM) in reaction buffer (NaAcetate, chaps, triton x-100, EDTA pH4.5). Enzyme and compound in dimethylsulphoxide (final DMSO concentration 5%) was mixed and pre-incubated for 10 minutes at RT. Substrate was then added and the reaction was incubated for 15 minutes at RT. The reaction was stopped with the addition of 0.35 vol Stop solution (NaAcetate, pH 9). The fluorescence of the product was measured on a Victor II plate reader with excitation wavelengths of 340-485 nm and emission wavelengths of 590-615 nm. The final concentration of the enzyme was 2.7 μg/ml; the final concentration of substrate was 100 nM (Km of ˜250 nM). The dimethylsulphoxide control, instead of test compound, defined the 100% activity level and 0% activity was defined by wells lacking enzyme (replaced with reaction buffer) or by a saturating dose of a known inhibitor, 2-amino-6-[3-β-methoxyphenyl)phenyl]-3,6-dimethyl-5H-pyrimidin-4-one.

[2] = test system: sAPPβ release in SH-SY5Y cells; assay: sAPPβ release assay; format: cell-based; conditions: 17 h incubation
Description: SH-SY5Y cells were cultured in DMEM/F-12 with Glutamax, 10% FCS and 1% non-essential amino acids and cryopreserved and stored at −140° C. at a concentration of 7.5−9.5×10^6 cells per vial. […] The cell plates were then incubated for 7-24 h at 37° C., 5% CO2. The cell medium was removed, followed by addition of 30 μL compound diluted in DMEM/F-12 with Glutamax, 10% FCS, 1% non-essential amino acids and 1% PeSt to a final conc. of 1% DMSO. The compounds were incubated with the cells for 17 h (overnight) at 37° C., 5% CO2. Meso Scale Discovery (MSD) plates were used for the detection of sAPPβ release. MSD sAPPβ plates were blocked in 1% BSA in Tris wash buffer (40 μL/well) for 1 h on shake at r.t. and washed 1 time in Tris wash buffer (40 μL/well). 20 μL of medium was transferred to the pre-blocked and washed MSD sAPPβ microplates, and the cell plates were further used in an ATP assay to measure cytotoxicity. The MSD plates were incubated with shaking at r.t. for 2 h and the media discarded. 10 μL detection antibody was added (1 nM) per well followed by incubation with shaking at r.t. for 2 h and then discarded. 40 μL Read Buffer was added per well and the plates were read in a SECTOR Imager.

[3] = biological target: T1, human β-Secretase (sBACE-Fc); assay: Diluted TR-FRET assay; format: biochemical; conditions: diluted TR-FRET assay: 50 times less enzyme, 6.5 h reaction time at r.t.; read-out: IC50 in TR-FRET assay (IC50 from the diluted FRET assay)
Description: as §1, §2
Compounds with a high affinity were further tested in a diluted TR-FRET assay, conditions as described above for the TR-FRET assay, but with 50 times less enzyme and a 6.5 h long reaction time at r.t. in the dark.

T1 sequence (P56817 22-460): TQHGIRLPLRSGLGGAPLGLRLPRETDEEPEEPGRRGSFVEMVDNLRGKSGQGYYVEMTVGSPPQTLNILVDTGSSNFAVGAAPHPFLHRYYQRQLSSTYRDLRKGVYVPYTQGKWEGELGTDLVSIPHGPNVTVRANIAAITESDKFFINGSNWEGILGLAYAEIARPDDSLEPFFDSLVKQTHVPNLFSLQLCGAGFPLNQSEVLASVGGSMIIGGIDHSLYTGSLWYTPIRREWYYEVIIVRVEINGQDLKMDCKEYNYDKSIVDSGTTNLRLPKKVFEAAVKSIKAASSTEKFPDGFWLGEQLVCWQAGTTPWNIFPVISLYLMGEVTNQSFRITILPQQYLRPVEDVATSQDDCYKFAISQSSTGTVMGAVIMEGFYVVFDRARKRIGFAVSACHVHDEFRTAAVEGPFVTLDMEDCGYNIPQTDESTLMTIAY

SMILES	IC50 [1] [nM]	IC50 ([2]; Homo sapiens) [nM]	IC50 [3] [nM]	IC50 [2] [nM]
CO[C@H]1CC[C@]2(CC1)Cc1ccc(OCC3CC3)cc1[C@]21N=C(C)C(N)=N1 (single isomer, unassigned; isomer 2) [4, isomer 2]	> 5000	–	–	–
CO[C@H]1CC[C@]2(CC1)Cc1ccc(OCC3(C)CC3)cc1C21N=C(C)C(N)=N1 (stereo partly drawn) [Example 1, (1r,4r)-4-Methoxy-5″-methyl-6′-[(1-methylcyclopropyl)methoxy]-3′H-dispiro[cyclohexane-1,2′-indene-1′,2″-imidazol]-4″-amine]	–	2.8	18	–
CO[C@H]1CC[C@]2(CC1)Cc1ccc(OCC3CCC3)cc1[C@@]21N=C(C)C(N)=N1 (single isomer, unassigned; isomer 1) [7, isomer 1]	–	–	–	1.3
CO[C@H]1CC[C@]2(CC1)Cc1ccc(OCC3CC3)cc1[C@@]21N=C(C)C(N)=N1 (single isomer, unassigned; isomer 1) [4, isomer 1]	–	–	3.7	0.9

More lines, now with the values ahead:

IC50 [1] [nM]	IC50 ([2]; Homo sapiens) [nM]	IC50 [3] [nM]	IC50 [2] [nM]	SMILES
50	8.4	–	–	CO[C@H]1CC[C@]2(CC1)Cc1ccc(OCC3CC(F)(F)C3)cc1C21N=C(C)C(N)=N1 (stereo partly drawn) [Example 2, (1r,4r)-6′-[(3,3-Difluorocyclobutyl)methoxy]-4-methoxy-5″-methyl-3′H-dispiro[cyclohexane-1,2′-indene-1′,2″-imidazol]-4″-amine]
–	2.3	13	–	CO[C@H]1CC[C@]2(CC1)Cc1ccc(OCC3CC3(F)F)cc1C21N=C(C)C(N)=N1 (stereo partly drawn) [Example 5, (1r,4r)-6′-[(2,2-Difluorocyclopropyl)methoxy]-4-methoxy-5″-methyl-3′H-dispiro[cyclohexane-1,2′-indene-1′,2″-imidazol]-4″-amine]
–	0.8	3.7	–	CO[C@H]1CC[C@]2(CC1)Cc1ccc(OCCC3CC3)cc1C21N=C(C)C(N)=N1 (stereo partly drawn) [Example 8, (1r,4r)-6′-(2-Cyclopropylethoxy)-4-methoxy-5″-methyl-3′H-dispiro[cyclohexane-1,2′-indene-1′,2″-imidazol]-4″-amine]
–	1.6	7.4	–	CO[C@H]1CC[C@]2(CC1)Cc1ccc(OCC3CC3)cc1C21N=C(C)C(N)=N1 (stereo partly drawn) [Example 3, (1r,4r)-6′-(Cyclopropylmethoxy)-4-methoxy-5″-methyl-3′H-dispiro[cyclohexane-1,2′-indene-1′,2″-imidazol]-4″-amine]
–	1.5	–	–	CO[C@H]1CC[C@]2(CC1)Cc1ccc(OCC3CCC3)cc1C21N=C(C)C(N)=N1 (stereo partly drawn) [Example 6, (1r,4r)-6′-(Cyclobutylmethoxy)-4-methoxy-5″-methyl-3′H-dispiro[cyclohexane-1,2′-indene-1′,2″-imidazol]-4″-amine]
